# Key:
# macrophages = details: rabbit, in vivo
# Method: Tetracaine HCI (0.5%) was used for topical anesthesia.
# All eyes were enucleated immediately after euthanasia. […] Serial cryosections were cut and stored at −70° C. Non-treated eyes were used for control. Cryosections were stained with H&E and immunohistochemical staining.
# [1] = test system: CD4, CD8, Macrophage and MHC-II positive cells; assay: Immunohistochemistry of inflammatory cells after PDT (combined statements)
# Method: (§1) Twelve pigmented rabbits weighing between 2 and 4 kg were used. Animals were anesthetized with ketamine HCI (40 mg/kg) and xylocaine (5 mg/kg). Tetracaine HCI (0.5%) was used for topical anesthesia. Tropicamide (1%) and phenylephrine (2.5%) eye drops were used for pupillary dilation. Euthanasia was accomplished with sodium pentobarbital (150 mg/kg) intracardiac injection. Two rabbits were sacrificed at day 2, 7, 14, 28, 42 and 56 following PDT.
# (§2) Ten rabbits were injected intravenously with 2 mg/kg BPD-MA, and 689 nm laser light at 600 mW/cm^2 was successively applied on three 1.25-mm spot in one eye according to the following schedule:
# (§3) All eyes were enucleated immediately after euthanasia. After the cornea, lens, and vitreous were removed, experimental area was delineated with sharp cuts. Tissue was placed in freezing compound (OCT) and frozen in liquid nitrogen. Serial cryosections were cut and stored at −70° C. Non-treated eyes were used for control. Cryosections were stained with H&E and immunohistochemical staining.
# Frozen sections were thawed and fixed with fresh acetone for 5 minutes. Endogenous peroxide activity was blocked with 0.3% hydrogen peroxide in phosphate buffered saline (PBS). After blocked with PBS and 1% bovine serum albumin (BSA), the specific primary antibodies were diluted in PBS with 1% BSA and incubated at room temperature for an hour. Detection was achieved using ABC Elite detection kit (DAKO) with aminoethylcarbizole as the chromogen. Sections were counterstained with light Mayers' hematoxylin, washed with tap water, and mounted in water soluble mounting medium (Biomeda, Catalogue no. MO1).
# (§4) Normal-dose PDT was performed as phase 1 in three rabbits.
# (§5) Immediately after each individual light treatment with normal-dose PDT, 5 mm Spot concentric with the 1.25 mm spot was exposed to 15 J/cm^2 (25 sec) in three rabbits. FA and fundus photography was taken as phase 1, and animals were sacrificed for immunohistochemical study at day 28 following PDT.
# MHC-II positive cells = details: rabbit, in vivo
# Method: as §1, §2, §3
# (§6) Frozen sections were thawed and fixed with fresh acetone for 5 minutes. Endogenous peroxide activity was blocked with 0.3% hydrogen peroxide in phosphate buffered saline (PBS). After blocked with PBS and 1% bovine serum albumin (BSA), the specific primary antibodies were diluted in PBS with 1% BSA and incubated at room temperature for an hour. […]
# CD4 positive cells = details: rabbit, in vivo
# Method: as §1, §2, §3, §6
# CD8 positive cells = details: rabbit, in vivo
# Method: as §1, §2, §3, §6
# normal rabbit choroid [2] = details: in vivo
# Method: as §1, §2
# Following PDT, animals were kept in a dark room overnight.
# Fluorescein angiography (FA) and fundus photography were performed as 2 baseline before PDT, the day after PDT, weekly, and at the day of sacrifice.
# as §4, §5
# normal rabbit choroid [3] = details: in vivo; remark: listed apart in the source
# Method: as §1, §2, §3
substance,measurement,setting,value
"9-methyl (I) and 13-methyl (II) trans-(±)-18-ethenyl-4,4a-dihydro-3,4-bis(methoxycarbonyl)-4a,8,14,19-tetramethyl-23H,25H-benzo[b]porphine-9,13-dipropanoate [BPD-MA]",Macrophage positive cells after the additional low-dose PDT,macrophages,slightly increased
same,change of macrophages versus control,macrophages,statistically significantly increased
same,persistence of inflammatory reactions after therapeutic PDT,[1]; normal rabbit choroid,≤ 56 days
same,"change of CD4, CD8, Macrophage and MHC-II positive cells compared to control","[1]; rabbit, Phase 2, 4 weeks after low-dose PDT",slightly increased
same,"effect of additional concentric large diameter low-dose PDT on the increase in CD4, CD8, Macrophage and MHC-II positive cells after normal-dose PDT","[1]; rabbit, Phase 3, day 28",suppressed the increase
same,effect of low dose light following therapeutic PDT on inflammation,"[1]; rabbit, low dose light 15 J/cm^2",effectively inhibited the increase in inflammation
same,change of MHC-II positive cells versus control,MHC-II positive cells,statistically significantly increased
same,change of CD4 positive cells in treated area,CD4 positive cells,no significant increase
same,change of CD4 positive cells versus control,CD4 positive cells,statistically significantly increased
same,change of CD8 positive cells versus control,CD8 positive cells,statistically significantly increased
same,neovascular leakage on fluorescein angiography,normal rabbit choroid [2],no neovascular leakages
same,dependence of histologic damage on dose of light,normal rabbit choroid [3],more severe with the higher dose of light
same,"histologic damage of RPE layer, photoreceptor layer, outer nuclear and plexiform layer",normal rabbit choroid [3],damaged in all cases
same,histologic damage of inner nuclear layer,normal rabbit choroid [3],a little damages but generally preserved well
same,state of choriocapillaries and larger choroidal vessels after PDT,normal rabbit choroid [3],"collapsed after PDT, but not the larger choroidal vessels"
same,time for RPE layer to begin to become a monolayer again,normal rabbit choroid [3],in two weeks

# Reference: patent publication US8106038B2, “Method for reducing or preventing PDT related inflammation” (QLT Inc., priority 2001, dated 2012)
